GI50 and TGI data for 19 compounds are collected here from PubChem BioAssay (NCI).

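Assay format: 96-well plates, 48-hour exposure. GI50 marks 50% less growth. TGI marks complete inhibition of growth.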 Some results are limits rather than exact numbers.

Common to all, as to assay: NCI tumour cell line growth inhibition, 48 h
Assay [1] has as its system SF-268 CNS.
Assay [2] has as its system SK-OV-3 ovarian.
In assay [3] the test system is UACC-62 melanoma.
For assay [4], the system named is NCI/ADR-RES ovarian.
In assay [5] the test system is MCF7 breast.
The subject of assay [6] is SK-MEL-28 melanoma.
In assay [7] the test system is NCI-H522 lung.
The test system of assay [8] is HT29 colon.
Assay [9] relates to CCRF-CEM leukemia.
Assay [10] relates to MALME-3M melanoma.

As to `CC(=O)OC1OC([C@H]2c3cccc(O)c3C(=O)c3c(O)cc(C)cc32)C(O)C(O)C1O` (stereo not given in full), the GI50 in [1] is 0.0788 µM; in assay [2] it was 0.0576 µM; in [3] it was less than 0.0219 µM; in assay [4], 0.0383 µM; in [5], 0.287 µM; in assay [6], 0.191 µM. Also, the GI50 in assay [7] is 0.0479 µM; in assay [8] it was 0.116 µM; in [9], 0.444 µM. The TGI in assay [1] was 1.74 µM; in [2], 12.3 µM; in assay [3], 1.41 µM; in assay [4], 5.95 µM; in [5], 0.803 µM; in assay [6], more than 23.2 µM. Also, the TGI was 19.9 µM in [7], more than 100 µM in assay [8] and 2.25 µM in [9].

`COc1ccc2c(c1)OC1=C(C(=O)OC1)C2c1cc(OC)c2c(c1)OCCO2` (stereo not given): the GI50 in assay [1] was 0.156 µM; in assay [2] it was 0.0716 µM; in [3] it was 0.0456 µM; in assay [4], 0.0279 µM; in assay [5] it was 0.0352 µM; in assay [6], 0.0517 µM. Further, the figures for the GI50 in assay [8] and in [9] were 0.0366 µM and 0.0647 µM, respectively. In addition, the TGI in [1] is more than 100 µM; in [2] it was 7.33 µM; in assay [3] it was more than 100 µM; in [4], 0.0915 µM; in [5] it was more than 100 µM; in assay [6], more than 100 µM.

On to `C[C@]12CC=CC(=O)[C@@]1(C)CCC(=O)C2`, for which the TGI in assay [1], in [2], in [3], in assay [6], in assay [7] and in assay [8] was more than 100 µM throughout. Also, the TGI in assay [10] and in [9] was more than 100 µM throughout.

Consider `CCCCCCCCCCCCCP(=O)(O)O`, for which the TGI in assay [1], in [2], in assay [3], in assay [6], in [7] and in [8] was more than 100 µM each time. Besides, the TGI in [10] and in [9] was more than 100 µM each time.

In the case of `[N-]=[N+]=NCCCn1c2c(c3ccc([N+](=O)[O-])cc3c1=O)C(=O)c1ccccc1-2`, the GI50 in assay [1] was 79.8 µM; in assay [2] it was more than 100 µM; in [3], 29.6 µM; in assay [4], more than 100 µM; in assay [5], 4.19 µM; in [6] it was more than 100 µM. For the same compound, the GI50 in assay [7] is 70.3 µM; in assay [8], more than 100 µM. For the same compound, the TGI in [1], in assay [2], in assay [3], in assay [4], in assay [5] and in [6] was more than 100 µM in each case. Besides, the TGI in assay [7] and in [8] was more than 100 µM throughout.

With `NC1=NN(c2ccccc2)C(=O)C1C(=O)CCC(=O)Nc1cccc(Cl)c1` (stereo not given), the TGI in [1], in assay [2], in assay [3], in assay [6], in [7] and in [8] was more than 100 µM in each case. Besides, the TGI in assay [10] and in [9] was more than 100 µM each time.

For `O=C1N/C(=C\[N+](=O)[O-])c2ccccc21`, the TGI in assay [1], in [2], in assay [3], in assay [6], in assay [7] and in [8] was more than 100 µM in each case. Further, the TGI in assay [10] and in assay [9] was more than 100 µM throughout.

On to `O=C(Nc1cccc(O)c1)C(=O)C1C(=O)NC(=S)NC1=O`, for which the TGI in [1], in assay [2], in assay [3], in assay [6], in assay [7] and in [8] was more than 100 µM throughout. In addition, the TGI in assay [10] and in assay [9] was more than 100 µM in each case.

`COCCOC(=O)C1=C(O)c2ccccc2S(=O)(=O)N1C`: the TGI in assay [1], in assay [2], in [3], in assay [4], in assay [6] and in assay [7] was more than 100 µM in each case. Also, the TGI in [8], in [10] and in assay [9] was more than 100 µM throughout.

For the compound `CCC1=CCN(c2cc(C)ccn2)OC1c1ccc(OC)cc1` (stereo not given), the TGI in assay [1] was more than 100 µM; in assay [2], more than 100 µM; in assay [3], more than 100 µM; in assay [6], 64.9 µM; in assay [7], 52.1 µM; in assay [8], 50.2 µM. Moreover, the TGI is 84.1 µM in assay [10] and 85.7 µM in [9].

Turning to `COc1ccc2c(c1)C(=O)CCc1cc(OC)c(OC)c(OC)c1-2`, the GI50 in assay [1] was 0.0652 µM; in assay [3], less than 0.01 µM; in assay [4], less than 0.01 µM; in assay [6], 24.8 µM; in assay [8] it was less than 0.01 µM; in assay [9], less than 0.01 µM. Besides, the TGI in assay [1], in assay [2], in assay [3], in assay [5], in assay [6] and in assay [9] was more than 100 µM in each case.

Take `Nc1ncc(-c2cnn(C3CCNCC3)c2)cc1-c1nc2cc(Cl)ccc2o1`: the GI50 was 1.38 µM in assay [1]; 1.76 µM in [2]; 1.96 µM in assay [3]; 1.14 µM in [5]; 1.3 µM in assay [6]; 0.352 µM in [8]. In addition, the GI50 in [10] is 1.71 µM; in assay [9], 0.222 µM. In addition, the TGI in assay [1] is 2.8 µM; in [2] it was 3.22 µM; in [3], 3.65 µM; in assay [5] it was 2.68 µM; in assay [6] it was 2.68 µM; in assay [8], 1.25 µM. Further, the TGI in [10] was found to be 3.37 µM; in [9] it was 0.541 µM.

Regarding `O=C(Nc1ccc(C(F)(F)F)cc1[N+](=O)[O-])C(=O)C1NC(=S)NC1=O` (stereo not given), the TGI in assay [1], in assay [2], in assay [3], in assay [6], in assay [7] and in [8] was more than 100 µM in each case. The TGI in assay [10] and in assay [9] was more than 100 µM each time.

For `CC(=O)c1ccc(NC(=O)/C(CC(=O)c2sc(-c3cccnc3)nc2C)=N/NC(N)=O)cc1`, the TGI in [1], in assay [2], in assay [3], in assay [6], in [7] and in assay [8] was more than 100 µM throughout. Further, the TGI in assay [10] was more than 100 µM; in [9], 66.5 µM.

Take `N/N=C\c1c2ccccc2c(=O)n2c1oc1ccccc12`: the GI50 in [1] was 15.9 µM; in assay [2] it was 17.6 µM; in assay [3], 6.82 µM; in [4], 16.9 µM; in assay [6] it was 18.8 µM; in [7], 13.6 µM. The GI50 in assay [8] was 22.1 µM. Besides, the TGI amounted to 30.4 µM in [1]; 34.3 µM in assay [2]; 19.7 µM in assay [3]; 38.1 µM in [4]; 38.7 µM in assay [6]; 46 µM in [7]. In assay [8], this compound displayed a TGI of more than 100 µM.

Turning to `COc1ccc(NC(=O)CC/C(CC(=O)c2ccco2)=N/NC(=O)C(N)=O)cc1`, the TGI in [1], in assay [2], in assay [3], in assay [6], in [7] and in [8] was more than 100 µM in each case. Besides, the TGI in [10] and in [9] was more than 100 µM each time.

Consider `O=S(=O)(C1=CC(S(=O)(=O)c2ccccc2)CN(Cc2ccccc2)C1c1cccc2ccccc12)c1ccccc1` (stereo not given), for which the TGI in [1], in assay [2], in assay [3], in [6], in assay [7] and in assay [8] was more than 69 µM each time. Moreover, the TGI in assay [10] and in assay [9] was more than 69 µM throughout.

With `CC(=O)Oc1c(C)c(-c2ccccc2)c(C)c(-c2ccccc2)c1C(=S)c1ccccc1`, the TGI in assay [1], in assay [2], in assay [3], in [6], in assay [7] and in assay [8] was more than 100 µM in each case. The TGI in [10] and in assay [9] was more than 100 µM in each case.

In the case of `O=C(Nc1ccc(Cl)cc1)C1C(=O)C(=O)N(c2ccc(Cl)cc2)C1=O` (stereo not given), the TGI in [1], in assay [2], in assay [3], in assay [6], in [7] and in assay [8] was more than 100 µM each time. For the same compound, the TGI in assay [10] and in assay [9] was more than 100 µM throughout.
